According to US11524934B2, “Phenylamine compounds” (PI INDUSTRIES LTD., priority 2017, dated 2022):

Assays:
Alternaria solani = Alternaria solani (early blight of tomato/potato) in vitro test, radial growth on Potato Dextrose Agar; settings: 168 h, read-out: control
Experimental: (§1) Compounds of present invention were assessed for activity against one or more of the following: Biological Test Examples, in vitro test

Botrytis cinerea = Botrytis cinerea (Gray mold) in vitro test, radial growth on Potato Dextrose Agar; settings: 168 h, read-out: control
Experimental: as §1
Botrytis cinerea (Gray mold): Compounds were dissolved in 0.3% DMSO & then added to Potato Dextrose Agar medium just prior to dispensing it into Petri dishes. 5 ml medium with compound in the desired concentration was dispensed into 60 mm sterile Petri-plates. After solidification each plate was seeded with 5 mm size mycelial disc taken form periphery of actively growing virulent culture plate. Plates were incubated in growth chambers at 22° C. temperature & 90% Relative Humidity for seven days and radial growth was measured.

Colletotrichum capsici = Colletotrichum capsici (anthracnose) in vitro test, radial growth on Potato Dextrose Agar; settings: Colletotrichum truncatum, 168 h, read-out: control
Experimental: Colletotrichum capsici (anthracnose): Compounds were dissolved in 0.3% DMSO & then added to Potato Dextrose Agar medium just prior to dispensing it into Petri dishes. 5 ml medium with compound in the desired concentration was dispensed into 60 mm sterile petri-plates. After solidification each plate was seeded with 5 mm size mycelial disc taken form periphery of actively growing virulent culture plate. Plates were incubated in growth chambers at 25° C. temperature & 60% Relative Humidity for seven days and radial growth was measured.

Pyricularia oryzae = test: microbe, parasite or virus in culture; assay type: cell-based; settings: 168 h, read-out: control
Rhizoctonia solani = settings: 168 h, read-out: control
Experimental: Rhizoctonia solani (Rice sheath blight/Potato black scurf): Compounds were dissolved in 0.3% DMSO & then added to Potato Dextrose Agar medium just prior to dispensing it into Petri dishes. 5 ml medium with compound in the desired concentration was dispensed into 60 mm sterile Petri-plates. After solidification each plate was seeded with 5 mm size mycelial disc taken form periphery of actively growing virulent culture plate. Plates were incubated in growth chambers at 25° C. temperature & 60% Relative Humidity for seven days and radial growth was measured.

Septoria lycopersici = Septoria lycopersici (Leaf spot of tomato) in vitro test, radial growth on Potato Dextrose Agar; settings: 168 h, read-out: control
Experimental: Septoria lycopersici (Leaf spot of tomato): Compounds were dissolved in 0.3% DMSO & then added to Potato Dextrose Agar medium just prior to dispensing it into Petri dishes. 5 ml medium with compound in the desired concentration was dispensed into 60 mm sterile petri-plates. After solidification each plate was seeded with 5 mm size mycelial disc taken form periphery of actively growing virulent culture plate. Plates were incubated in growth chambers at 25° C. temperature & 70% Relative Humidity for seven days and radial growth was measured.

Phakopsora pachyrhizi = Phakopsora pachyrhizi test in soybean (in vivo on plants), preventive activity; settings: preventive spray on soybean plants, inoculated one day after treatment, disease severity rated vs untreated check
Experimental: Example 8 (In Vivo on Plants): Phakopsora pachyrhizi Test in Soybean
Compounds were dissolved in 2% DMSO/Acetone & then mixed with water to the calibrated spray volume of 50 ml and poured into the spray bottles for further applications.
To test the preventive activity of compounds, healthy young soybean plants raised in the greenhouse were sprayed with active compound preparation at the stated application rates inside the spray cabinets using hallowcone nozzles. One day after treatment, the plants were inoculated with spore suspension containing 2.1×10^6 Phakopsora pachyrhizi inoculum. The inoculated plants were then kept in greenhouse chamber at 25° C. temperature & 90% Relative Humidity for disease expression.
A visual assessment of compound's performance was carried out by rating the disease severity (0-100% scale) on treated plants on 3, 7, 10 & 15 days after application. Efficacy (% control) of the compounds was calculated by comparing the disease rating in the treatment with the one of the untreated control. The sprayed plants were also assessed for compound's plant compatibility by recording symptoms like necrosis, chlorosis & stunting.

Fusarium culmorum = Fusarium culmorum (Foot rot of cereals) in vitro test, radial growth on Potato Dextrose Agar; assay type: cell-based; settings: 168 h, read-out: control

Row | Structure (SMILES) | inhibition of growth at 300 ppm (Alternaria solani) | inhibition of growth at 300 ppm (Botrytis cinerea) | inhibition of growth at 300 ppm (Colletotrichum capsici) | inhibition of growth at 300 ppm (Pyricularia oryzae) | inhibition of growth at 300 ppm (Rhizoctonia solani) | inhibition of growth at 300 ppm (Septoria lycopersici) | pest or weed control at 500 ppm (Phakopsora pachyrhizi) | inhibition of growth at 300 ppm (Fusarium culmorum)
1 | CCN(C)C=Nc1cc(C)c(C(=O)COc2cccc(Br)c2)cc1C [Compound 3, N′-(4-(2-(3-bromophenoxy)acetyl)-2,5-dimethylphenyl)-N-ethyl-N-methylformimidamide] | > 70% | > 70% | > 70% | > 70% | > 70% | > 70% |  | 
2 | CCN(C)C=Nc1cc(C)c(C(=O)CSc2cccc(F)c2)cc1C [Compound 4, N-ethyl-N′-(4-(2-((3-fluorophenyl)thio)acetyl)-2,5-dimethylphenyl)-N-methylformimidamide] | > 70% | > 70% | > 70% | > 70% | > 70% | > 70% | > 90% | 
3 | CCN(C)C=Nc1cc(C)c(C(=O)CSc2cccc(C)c2)cc1C [Compound 5, N′-(2,5-dimethyl-4-(2-(m-tolylthio)acetyl)phenyl)-N-ethyl-N-methylformimidamide] | > 70% | > 70% | > 70% | > 70% |  | > 70% |  | 70%
4 | CCN(C)C=Nc1cc(C)c(C(=O)CSc2cccc(Br)c2)cc1C [Compound 6, N′-(4-(2-((3-bromophenyl)thio)acetyl)-2,5-dimethylphenyl)-N-ethyl-N-methylformimidamide] | > 70% | > 70% | > 70% | > 70% | > 70% | > 70% | > 90% | 
5 | CCN(C)C=Nc1cc(C)c(C(=O)COc2cccc(F)c2)cc1C [Compound 9, N-ethyl-N′-(4-(2-(3-fluorophenoxy)acetyl)-2,5-dimethylphenyl)-N-methylformimidamide] | > 70% | > 70% | > 70% | > 70% | > 70% | > 70% | > 90% | 
6 | CCN(C)C=Nc1cc(C)c(C(=O)COc2ccc(C)cc2)cc1C [Compound 15, N′-(2,5-dimethyl-4-(2-(p-tolyloxy)acetyl)phenyl)-N-ethyl-N-methylformimidamide] | > 70% | > 70% | > 70% | > 70% | > 70% | > 70% | > 90% | 
7 | CCN(C)C=Nc1cc(C)c(C(=O)CSc2cccc(OC)c2)cc1C [Compound 27, N-ethyl-N′-(4-(2-((3-methoxyphenyl)thio)acetyl)-2,5-dimethylphenyl)-N-methylformimidamide] | > 70% | > 70% | > 70% | > 70% | > 70% | > 70% |  | 
8 | CCN(C)C=Nc1cc(C)c(C(=O)CSc2ccc(F)cc2)cc1C [Compound 28, N-ethyl-N′-(4-(2-((4-fluorophenyl)thio)acetyl)-2,5-dimethylphenyl)-N-methylformimidamide] | > 70% | > 70% | > 70% | > 70% | > 70% | > 70% |  | 70%
9 | CCN(C)C=Nc1cc(C)c(C(=O)CSc2ccc(Cl)cc2)cc1C [Compound 29, N′-(4-(2-((4-chlorophenyl)thio)acetyl)-2,5-dimethylphenyl)-N-ethyl-N-methylformimidamide] | > 70% | > 70% |  | > 70% | > 70% | > 70% |  | 70%
10 | CCN(C)C=Nc1cc(C)c(C(=O)C(C)(C)Sc2cccc(C)c2)cc1C [Compound 83, N′-(2,5-dimethyl-4-(2-methyl-2-(m-tolylthio)propanoyl)phenyl)-N-ethyl-N-methylformimidamide] | > 70% | > 70% | > 70% | > 70% | > 70% |  |  | 70%
11 | CCN(C)C=Nc1cc(C)c(C(=O)COc2c(Cl)cccc2Cl)cc1C [Compound 86, N′-(4-(2-(2,6-dichlorophenoxy)acetyl)-2,5-dimethylphenyl)-N-ethyl-N-methylformimidamide] | > 70% | > 70% | > 70% | > 70% | > 70% |  |  | 70%
12 | CCN(C)C=Nc1cc(C)c(C(=O)COc2c(C)cc(C)cc2Br)cc1C [Compound 89, N′-(4-(2-(2-bromo-4,6-dimethylphenoxy)acetyl)-2,5-dimethylphenyl)-N-ethyl-N-methylformimidamide] | > 70% | > 70% | > 70% | > 70% | > 70% | > 70% |  | 
13 | CCN(C)C=Nc1cc(C)c(C(=O)COc2c(C)cccc2Cl)cc1C [Compound 91, N′-(4-(2-(2-chloro-6-methylphenoxy)acetyl)-2,5-dimethylphenyl)-N-ethyl-N-methylformimidamide] | > 70% | > 70% | > 70% | > 70% | > 70% |  |  | 70%
14 | CCN(C)C=Nc1cc(C)c(C(=O)CN(C)c2ccc(C)cc2)cc1C [Compound 92, N′-(2,5-dimethyl-4-(N-methyl-N-(p-tolyl)glycyl)phenyl)-N-ethyl-N-methylformimidamide] | > 70% |  | > 70% | > 70% | > 70% | > 70% |  | 
15 | Cc1cc(C(=O)COc2ccccc2Cl)c(C)cc1N=CN(C)C [Compound 109, N′-(4-(2-(2-chlorophenoxy)acetyl)-2,5-dimethylphenyl)-N,N-dimethylformimidamide] | > 70% |  | > 70% | > 70% |  |  |  | 70%
16 | CCN(C)C=Nc1cc(C)c(C(=O)Cn2cnnc2)cc1C [Compound 114, N′-(4-(2-(4H-1,2,4-triazol-4-yl)acetyl)-2,5-dimethylphenyl)-N-ethyl-N-methylformimidamide] | > 70% | > 70% | > 70% | > 70% | > 70% |  |  | 70%
